Data: ChEMBL document CHEMBL1146756, “Studies on aromatic compounds: inhibition of calpain I by biphenyl derivatives and peptide-biphenyl hybrids” (Bioorg Med Chem Lett, 2004)
pIC50: −log10 of the molar value.

molecular target: T1, Calpain small subunit 1 (Sus scrofa, UniProt P04574); assay: Ability to displace labelledcasein from calpain I in porcine erythrocytes; Weak inhibitor; type: cell-based
T1 sequence (P04574 whole entry): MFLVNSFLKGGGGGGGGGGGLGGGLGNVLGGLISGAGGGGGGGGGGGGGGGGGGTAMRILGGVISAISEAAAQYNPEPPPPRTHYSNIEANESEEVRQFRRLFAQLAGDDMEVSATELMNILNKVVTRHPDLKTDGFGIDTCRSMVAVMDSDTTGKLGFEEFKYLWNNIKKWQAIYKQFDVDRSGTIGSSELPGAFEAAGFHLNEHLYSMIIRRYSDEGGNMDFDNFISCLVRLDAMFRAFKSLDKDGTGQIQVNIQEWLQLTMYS

| IC50 | Structure (SMILES) |
| --- | --- |
| Weak inhibitor | CNC(=O)[C@@H](Cc1ccccc1)NC(=O)[C@H](Cc1ccccc1)NC(=O)c1ccccc1-c1ccccc1C(=O)N[C@@H](CC(C)C)C(=O)N[C@@H](CCSC)C(=O)OC |
| Weak inhibitor | COC(=O)[C@H](Cc1ccc(O)cc1)NC(=O)c1ccccc1-c1ccccc1C(=O)N[C@@H](Cc1ccccc1)C(=O)N[C@@H](CCSC)C(=O)OC |

molecular target: not listed separately; assay: Displacement of casein from calpain 1 in porcine erythrocytes; type: cell-based, Sus scrofa

| Structure (SMILES) | pIC50 |
| --- | --- |
| COC(=O)[C@H](Cc1ccccc1)NC(=O)[C@H](Cc1ccccc1)NC(=O)c1ccccc1-c1ccccc1C(=O)N[C@@H](Cc1ccccc1)C(=O)N[C@@H](Cc1ccccc1)C(=O)OC | 7.01 |
| COC(=O)[C@H](Cc1ccccc1)NC(=O)[C@H](CCSC)NC(=O)c1ccccc1-c1ccccc1C(=O)N[C@@H](CCSC)C(=O)N[C@@H](Cc1c[nH]c2ccccc12)C(=O)OC | 4.11 |
| O=C(N[C@@H](Cc1ccccc1)C(=O)O)c1ccccc1-c1ccccc1C(=O)N[C@@H](Cc1ccccc1)C(=O)O | 7.15 |

Further lines, results first:

| pIC50 | Structure (SMILES) |
| --- | --- |
| 4.39 | COC(=O)[C@@H](NC(=O)[C@H](Cc1ccccc1)NC(=O)c1ccccc1-c1ccccc1C(=O)N[C@@H](Cc1ccccc1)C(=O)Nc1ccccc1-c1ccccc1NC(=O)[C@H](C)NC(=O)OCC1c2ccccc2-c2ccccc21)C(C)C |
| 3.70 | O=C(N[C@@H](Cc1ccc(O)cc1)C(=O)O)c1ccccc1-c1ccccc1C(=O)N[C@@H](Cc1ccc(O)cc1)C(=O)O |
| 3.94 | C=CCO[C@H]1O[C@H](CNC(=O)c2ccccc2-c2ccccc2C(=O)N[C@@H](Cc2ccc(O)cc2)C(=O)OC)C=C[C@@H]1CC(=O)N[C@@H](Cc1ccccc1)C(=O)N[C@@H](CC(C)C)C(=O)NC |
| 7.19 | COC(=O)[C@H](Cc1ccccc1)NC(=O)c1ccccc1-c1ccccc1C(=O)N[C@@H](Cc1ccccc1)C(=O)OC |
| 5.15 | COC(=O)[C@@H](NC(=O)c1ccccc1-c1ccccc1C(=O)N[C@H](C(=O)OC)C(C)C)C(C)C |
| 7.62 | COC(=O)[C@H](Cc1ccccc1)NC(=O)[C@@H](NC(=O)c1ccccc1-c1ccccc1C(=O)N[C@H](C(=O)N[C@@H](Cc1ccccc1)C(=O)OC)C(C)C)C(C)C |
| 7.43 | COC(=O)[C@H](Cc1c[nH]c2ccccc12)NC(=O)c1ccccc1-c1ccccc1C(=O)N[C@@H](Cc1c[nH]c2ccccc12)C(=O)OC |

molecular target: T1, Calpain small subunit 1; assay: Ability to displace labelledcasein from calpain I in porcine erythrocytes; Noninhibitor; type: cell-based

| IC50 | Structure (SMILES) |
| --- | --- |
| No inhibition | COC(=O)[C@H](Cc1ccccc1)NC(=O)c1ccccc1-c1ccccc1C(=O)O |
| No inhibition | COC(=O)[C@H](Cc1ccc(O)cc1)NC(=O)c1ccccc1-c1ccccc1C(=O)N[C@@H](Cc1ccc(O)cc1)C(=O)OC |
| No inhibition | COC(=O)[C@H](Cc1c[nH]cn1)NC(=O)c1ccccc1-c1ccccc1C(=O)N[C@@H](Cc1c[nH]cn1)C(=O)OC |
| No inhibition | CCC(C)[C@H](NC(=O)c1ccccc1-c1ccccc1C(=O)N[C@H](C(=O)OC)C(C)CC)C(=O)OC (some centres not stated) |
| No inhibition | COC(=O)[C@H](C)NC(=O)c1ccccc1-c1ccccc1C(=O)N[C@@H](C)C(=O)OC |
